Activity calls are given as the source filed them. The calls are words filed in the database; no cut-off is given here.
Tests used:
[1] = biological target: Serine/threonine-protein kinase Nek11 (Homo sapiens) (UniProt Q8NG66); assay: NEK11(h) Millipore kinase panel; conditions: Compound concentration 1.0 uM
[2] = biological target: Protein-tyrosine kinase 2-beta (Homo sapiens) (UniProt Q14289); assay: Pyk2(h) Millipore kinase panel; conditions: Compound concentration 1.0 uM
[3] = biological target: Alpha-1A adrenergic receptor (Homo sapiens) (UniProt P35348); assay: Inhibition of Adrenergic alpha1A at compound concentration of 10.0 uM in the Eurofins-Panlabs radioligand binding assay (Eurofins_assay_203110); parameters: ligand concentration 0.25 nM; conditions: Rattus norvegicus; Compound concentration 10.0 uM
[4] = biological target: Serine/threonine-protein kinase STK11 (Homo sapiens) (UniProt Q15831); assay: LKB1(h) Millipore kinase panel; conditions: Compound concentration 1.0 uM
[5] = biological target: Serine/threonine-protein kinase ULK2 (Homo sapiens) (UniProt Q8IYT8); assay: ULK2(h) Millipore kinase panel; conditions: Compound concentration 1.0 uM
[6] = biological target: 3',5'-cyclic-AMP phosphodiesterase 4D (Homo sapiens) (UniProt Q08499); assay: Inhibition of Phosphodiesterase PDE4D2 at 10 µM in the Eurofins-Panlabs enzyme assay (Eurofins_assay_154420); parameters: substrate with concentration; conditions: Compound concentration 10.0 uM
[7] = biological target: Serine/threonine-protein kinase 16 (Homo sapiens) (UniProt O75716); assay: STK16(h) Millipore kinase panel; conditions: Compound concentration 1.0 uM
[8] = biological target: Monoamine oxidase B (MAO-B) (Homo sapiens, UniProt P27338); assay: Inhibition of Monoamine Oxidase MAO-B at compound concentration of 10.0 uM in the Eurofins-Panlabs enzyme assay (Eurofins_assay_140120); parameters: substrate with concentration 50 uM Kynuramine, incubation time 60 min, incubation temperature 37 C; conditions: recombinant human MAO-B expressed in insect Hi5 cells, probe Kynuramine (50 uM), compound concentration 10 uM
[9] = biological target: Phosphatidylinositol 4-phosphate 3-kinase C2 domain-containing subunit alpha (Homo sapiens) (UniProt O00443); assay: PI3KC2a(h) Millipore kinase panel; conditions: Compound concentration 1.0 uM
[10] = biological target: Ephrin type-A receptor 1 (Homo sapiens) (UniProt P21709); assay: EphA1(h) Millipore kinase panel; conditions: Compound concentration 1.0 uM
[11] = biological target: Gamma-aminobutyric acid type B receptor subunit 1 (Homo sapiens) (UniProt Q9UBS5); conditions: Rattus norvegicus; Compound concentration 10.0 uM
[12] = biological target: D(1B) dopamine receptor (Homo sapiens) (UniProt P21918); conditions: Compound concentration 10.0 uM
[13] = biological target: Leucine-rich repeat serine/threonine-protein kinase 2 (Homo sapiens) (UniProt Q5S007); assay: LRRK2(h) Millipore kinase panel; conditions: Compound concentration 1.0 uM
[14] = biological target: Dual specificity tyrosine-phosphorylation-regulated kinase 2 (Homo sapiens) (UniProt Q92630); assay: DYRK2(h) Millipore kinase panel; conditions: Compound concentration 1.0 uM
[15] = biological target: Protein-tyrosine kinase 6 (Homo sapiens) (UniProt Q13882); assay: BRK(h) Millipore kinase panel; conditions: Compound concentration 1.0 uM
[16] = biological target: Muscarinic acetylcholine receptor M3 (Homo sapiens) (UniProt P20309); conditions: Compound concentration 10.0 uM
[17] = biological target: Serine/threonine-protein kinase DCLK3 (Homo sapiens) (UniProt Q9C098); assay: DCAMKL3(h) Millipore kinase panel; conditions: Compound concentration 1.0 uM
[18] = biological target: Sodium-dependent serotonin transporter (Homo sapiens) (UniProt P31645); conditions: Compound concentration 10.0 uM
[19] = biological target: Prostaglandin G/H synthase 1 (Homo sapiens) (UniProt P23219); assay: Cyclooxygenase COX-1 Eurofins-Panlabs enzyme assay; parameters: substrate with concentration; conditions: Compound concentration 10.0 uM
[20] = biological target: Rhodopsin kinase GRK1 (Homo sapiens) (UniProt Q15835); assay: GRK1(h) Millipore kinase panel; conditions: Compound concentration 1.0 uM
[21] = biological target: Dual specificity protein kinase TTK (Homo sapiens) (UniProt P33981); assay: TTK(h) Millipore kinase panel; conditions: Compound concentration 1.0 uM
[22] = biological target: mTOR/FKBP12A/FKBP12B (Homo sapiens) (UniProt P62942+P68106+P42345); assay: mTOR FKBP12(h) Millipore kinase panel; type: protein-complex assay; conditions: Compound concentration 1.0 uM
[23] = biological target: T1, Muscarinic acetylcholine receptor M1 (Homo sapiens) (UniProt P11229); conditions: Compound concentration 10.0 uM
T1 sequence (whole entry): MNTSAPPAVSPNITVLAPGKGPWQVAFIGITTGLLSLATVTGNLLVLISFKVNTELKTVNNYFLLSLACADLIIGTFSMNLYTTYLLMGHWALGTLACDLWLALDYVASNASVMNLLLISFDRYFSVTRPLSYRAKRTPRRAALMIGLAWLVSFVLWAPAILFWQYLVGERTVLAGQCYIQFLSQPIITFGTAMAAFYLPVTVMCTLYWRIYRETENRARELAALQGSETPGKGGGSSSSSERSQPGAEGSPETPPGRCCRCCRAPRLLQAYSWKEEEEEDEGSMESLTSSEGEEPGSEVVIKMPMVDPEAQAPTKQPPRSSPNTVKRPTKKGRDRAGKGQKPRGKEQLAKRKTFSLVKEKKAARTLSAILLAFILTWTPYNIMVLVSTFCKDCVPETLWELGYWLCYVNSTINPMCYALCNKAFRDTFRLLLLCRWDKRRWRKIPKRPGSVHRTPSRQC

[24] = biological target: Mitogen-activated protein kinase kinase kinase 11 (Homo sapiens) (UniProt Q16584); assay: MLK3(h) Millipore kinase panel; conditions: Compound concentration 1.0 uM
[25] = biological target: Phosphorylase b kinase gamma catalytic chain, skeletal muscle/heart isoform (Homo sapiens) (UniProt Q16816); assay: PhKgamma1(h) Millipore kinase panel; conditions: Compound concentration 1.0 uM
[26] = biological target: Platelet-derived growth factor receptor beta (Homo sapiens) (UniProt P09619); assay: PDGFRbeta(h) Millipore kinase panel; conditions: Compound concentration 1.0 uM
[27] = biological target: Ephrin type-B receptor 4 (Homo sapiens) (UniProt P54760); assay: EphB4(h) Millipore kinase panel; conditions: Compound concentration 1.0 uM
[28] = biological target: Activin receptor type-1-like (Homo sapiens) (UniProt P37023); assay: ALK1(h) Millipore kinase panel; conditions: Compound concentration 1.0 uM
[29] = biological target: Serine/threonine-protein kinase PAK 4 (Homo sapiens) (UniProt O96013); assay: PAK4(h) Millipore kinase panel; conditions: Compound concentration 1.0 uM
[30] = biological target: Serine/threonine-protein kinase SIK3 (Homo sapiens) (UniProt Q9Y2K2); assay: SIK3(h) Millipore kinase panel; conditions: Compound concentration 1.0 uM
[31] = biological target: Serine/threonine-protein kinase PAK 5 (Homo sapiens) (UniProt Q9P286); assay: PAK5(h) Millipore kinase panel; conditions: Compound concentration 1.0 uM
[32] = biological target: Serine/threonine-protein kinase BRSK1 (Homo sapiens) (UniProt Q8TDC3); assay: BrSK1(h) Millipore kinase panel; conditions: Compound concentration 1.0 uM
[33] = biological target: Serine/threonine-protein kinase PAK 1 (Homo sapiens) (UniProt Q13153); assay: PAK1(h) Millipore kinase panel; conditions: Compound concentration 1.0 uM
[34] = biological target: D(3) dopamine receptor (Homo sapiens) (UniProt P35462); conditions: Compound concentration 10.0 uM
[35] = biological target: TGF-beta receptor type-2 (Homo sapiens) (UniProt P37173); assay: TGFBR2(h) Millipore kinase panel; conditions: Compound concentration 1.0 uM
[36] = biological target: Discoidin domain-containing receptor 2 (Homo sapiens) (UniProt Q16832); assay: DDR2(h) Millipore kinase panel; conditions: Compound concentration 1.0 uM
[37] = biological target: Eukaryotic translation initiation factor 2-alpha kinase 3 (Homo sapiens) (UniProt Q9NZJ5); assay: PEK(h) Millipore kinase panel; conditions: Compound concentration 1.0 uM
[38] = biological target: Ribosomal protein S6 kinase alpha-1 (Homo sapiens) (UniProt Q15418); assay: Rsk1(h) Millipore kinase panel; conditions: Compound concentration 1.0 uM
[39] = biological target: Tyrosine-protein kinase Srms (Homo sapiens) (UniProt Q9H3Y6); assay: SRMS(h) Millipore kinase panel; conditions: Compound concentration 1.0 uM

Sequence of Dual specificity protein kinase TTK (Homo sapiens) (P33981 whole entry): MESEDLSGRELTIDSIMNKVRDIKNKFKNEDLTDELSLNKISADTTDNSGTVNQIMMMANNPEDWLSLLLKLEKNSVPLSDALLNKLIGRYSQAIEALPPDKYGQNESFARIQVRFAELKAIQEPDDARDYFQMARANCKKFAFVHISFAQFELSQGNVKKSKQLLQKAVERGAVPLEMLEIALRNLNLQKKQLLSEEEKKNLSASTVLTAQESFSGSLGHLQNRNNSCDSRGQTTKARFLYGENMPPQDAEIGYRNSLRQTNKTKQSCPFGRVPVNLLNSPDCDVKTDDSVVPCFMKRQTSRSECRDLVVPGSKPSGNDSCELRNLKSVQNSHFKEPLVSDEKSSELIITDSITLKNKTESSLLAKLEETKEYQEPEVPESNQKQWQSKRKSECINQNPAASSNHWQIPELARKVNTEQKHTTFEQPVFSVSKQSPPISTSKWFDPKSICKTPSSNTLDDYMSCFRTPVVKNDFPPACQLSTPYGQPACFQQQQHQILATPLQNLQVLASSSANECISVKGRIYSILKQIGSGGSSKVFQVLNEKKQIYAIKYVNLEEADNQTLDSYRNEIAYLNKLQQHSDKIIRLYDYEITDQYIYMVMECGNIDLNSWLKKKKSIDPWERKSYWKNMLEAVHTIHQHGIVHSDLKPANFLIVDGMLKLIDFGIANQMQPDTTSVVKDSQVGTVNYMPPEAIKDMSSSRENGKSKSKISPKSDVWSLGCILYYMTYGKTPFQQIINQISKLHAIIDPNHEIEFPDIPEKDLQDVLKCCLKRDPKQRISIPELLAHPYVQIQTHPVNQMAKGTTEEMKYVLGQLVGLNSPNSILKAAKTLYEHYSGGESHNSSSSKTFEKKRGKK
Sequence of Serine/threonine-protein kinase SIK3 (Homo sapiens) (Q9Y2K2 whole entry, looked up): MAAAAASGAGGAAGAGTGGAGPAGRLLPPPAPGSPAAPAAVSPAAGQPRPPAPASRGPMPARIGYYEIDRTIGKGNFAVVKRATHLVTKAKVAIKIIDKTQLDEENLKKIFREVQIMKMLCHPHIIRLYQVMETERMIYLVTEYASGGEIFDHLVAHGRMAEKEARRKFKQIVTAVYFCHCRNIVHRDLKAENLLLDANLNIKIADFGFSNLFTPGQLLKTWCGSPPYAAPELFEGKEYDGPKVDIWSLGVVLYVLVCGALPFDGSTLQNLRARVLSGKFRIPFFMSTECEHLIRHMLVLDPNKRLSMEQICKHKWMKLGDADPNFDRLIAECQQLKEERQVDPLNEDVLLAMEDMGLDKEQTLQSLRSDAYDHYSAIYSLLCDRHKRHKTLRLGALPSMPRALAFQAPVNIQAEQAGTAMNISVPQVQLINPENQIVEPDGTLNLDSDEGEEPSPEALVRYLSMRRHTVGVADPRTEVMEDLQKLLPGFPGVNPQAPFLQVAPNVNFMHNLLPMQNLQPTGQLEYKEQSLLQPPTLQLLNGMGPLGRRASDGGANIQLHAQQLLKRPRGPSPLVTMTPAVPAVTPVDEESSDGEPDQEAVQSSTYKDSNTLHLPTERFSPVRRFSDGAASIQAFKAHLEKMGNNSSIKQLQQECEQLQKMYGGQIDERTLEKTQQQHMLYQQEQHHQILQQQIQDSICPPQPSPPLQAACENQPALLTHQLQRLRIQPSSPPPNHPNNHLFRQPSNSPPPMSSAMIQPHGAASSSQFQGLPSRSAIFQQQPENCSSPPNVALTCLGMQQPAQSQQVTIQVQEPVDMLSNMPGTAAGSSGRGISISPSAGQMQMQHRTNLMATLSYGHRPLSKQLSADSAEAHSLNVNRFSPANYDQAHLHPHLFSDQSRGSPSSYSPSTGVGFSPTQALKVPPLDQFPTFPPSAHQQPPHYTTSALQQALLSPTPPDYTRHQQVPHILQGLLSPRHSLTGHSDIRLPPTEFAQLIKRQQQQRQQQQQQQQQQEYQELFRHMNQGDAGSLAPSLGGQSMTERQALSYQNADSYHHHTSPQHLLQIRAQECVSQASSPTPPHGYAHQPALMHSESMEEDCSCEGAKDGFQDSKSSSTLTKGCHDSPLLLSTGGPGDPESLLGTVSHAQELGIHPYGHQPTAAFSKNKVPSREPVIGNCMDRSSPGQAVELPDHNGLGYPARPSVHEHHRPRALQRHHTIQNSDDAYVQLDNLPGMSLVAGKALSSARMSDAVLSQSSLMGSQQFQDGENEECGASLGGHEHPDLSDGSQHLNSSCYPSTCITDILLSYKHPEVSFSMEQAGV
Sequence of Discoidin domain-containing receptor 2 (Homo sapiens) (Q16832 whole entry, the tested form may be a part): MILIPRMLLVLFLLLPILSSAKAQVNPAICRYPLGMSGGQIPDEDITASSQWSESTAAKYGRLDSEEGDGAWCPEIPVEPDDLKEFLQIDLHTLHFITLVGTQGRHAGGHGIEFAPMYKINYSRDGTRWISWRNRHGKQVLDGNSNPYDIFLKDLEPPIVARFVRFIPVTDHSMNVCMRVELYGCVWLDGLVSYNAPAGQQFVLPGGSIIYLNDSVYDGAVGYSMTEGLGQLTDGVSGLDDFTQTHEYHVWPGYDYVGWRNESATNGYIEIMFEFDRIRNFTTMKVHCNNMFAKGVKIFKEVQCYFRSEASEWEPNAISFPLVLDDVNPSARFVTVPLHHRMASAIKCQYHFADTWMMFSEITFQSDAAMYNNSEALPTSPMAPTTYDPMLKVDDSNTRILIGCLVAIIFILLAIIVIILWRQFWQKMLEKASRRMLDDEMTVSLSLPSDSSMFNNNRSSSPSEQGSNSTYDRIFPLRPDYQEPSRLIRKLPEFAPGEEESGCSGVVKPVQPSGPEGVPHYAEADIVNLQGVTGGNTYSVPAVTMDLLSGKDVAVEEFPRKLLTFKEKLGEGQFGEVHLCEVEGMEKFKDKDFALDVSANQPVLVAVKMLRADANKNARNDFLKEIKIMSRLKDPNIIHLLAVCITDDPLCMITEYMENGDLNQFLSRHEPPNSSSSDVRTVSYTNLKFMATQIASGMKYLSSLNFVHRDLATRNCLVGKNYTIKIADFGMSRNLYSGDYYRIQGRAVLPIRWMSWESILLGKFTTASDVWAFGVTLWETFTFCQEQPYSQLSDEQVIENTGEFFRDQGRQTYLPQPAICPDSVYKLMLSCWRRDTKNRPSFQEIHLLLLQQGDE
Sequence of Serine/threonine-protein kinase BRSK1 (Homo sapiens) (Q8TDC3 whole entry): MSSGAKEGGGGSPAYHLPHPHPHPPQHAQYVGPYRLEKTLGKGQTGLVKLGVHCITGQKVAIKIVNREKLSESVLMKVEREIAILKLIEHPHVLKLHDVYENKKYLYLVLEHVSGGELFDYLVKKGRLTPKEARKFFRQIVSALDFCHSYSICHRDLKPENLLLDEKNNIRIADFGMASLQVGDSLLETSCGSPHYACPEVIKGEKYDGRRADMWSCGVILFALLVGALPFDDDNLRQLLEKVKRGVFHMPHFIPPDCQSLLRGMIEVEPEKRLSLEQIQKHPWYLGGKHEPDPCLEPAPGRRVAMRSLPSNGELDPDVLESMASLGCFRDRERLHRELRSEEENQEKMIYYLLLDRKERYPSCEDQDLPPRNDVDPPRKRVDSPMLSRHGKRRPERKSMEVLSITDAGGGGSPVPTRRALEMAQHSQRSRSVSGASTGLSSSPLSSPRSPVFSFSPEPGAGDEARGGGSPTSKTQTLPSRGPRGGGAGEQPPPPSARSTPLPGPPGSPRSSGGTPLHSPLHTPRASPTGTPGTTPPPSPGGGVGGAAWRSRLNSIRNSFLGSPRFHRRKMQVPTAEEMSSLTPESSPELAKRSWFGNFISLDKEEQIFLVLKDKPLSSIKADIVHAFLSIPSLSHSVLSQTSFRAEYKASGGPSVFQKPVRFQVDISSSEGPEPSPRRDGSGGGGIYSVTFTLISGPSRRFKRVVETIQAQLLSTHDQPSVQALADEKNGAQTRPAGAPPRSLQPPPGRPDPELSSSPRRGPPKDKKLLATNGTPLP
Sequence of Monoamine oxidase B (MAO-B) (P27338 whole entry, the tested form may be a part): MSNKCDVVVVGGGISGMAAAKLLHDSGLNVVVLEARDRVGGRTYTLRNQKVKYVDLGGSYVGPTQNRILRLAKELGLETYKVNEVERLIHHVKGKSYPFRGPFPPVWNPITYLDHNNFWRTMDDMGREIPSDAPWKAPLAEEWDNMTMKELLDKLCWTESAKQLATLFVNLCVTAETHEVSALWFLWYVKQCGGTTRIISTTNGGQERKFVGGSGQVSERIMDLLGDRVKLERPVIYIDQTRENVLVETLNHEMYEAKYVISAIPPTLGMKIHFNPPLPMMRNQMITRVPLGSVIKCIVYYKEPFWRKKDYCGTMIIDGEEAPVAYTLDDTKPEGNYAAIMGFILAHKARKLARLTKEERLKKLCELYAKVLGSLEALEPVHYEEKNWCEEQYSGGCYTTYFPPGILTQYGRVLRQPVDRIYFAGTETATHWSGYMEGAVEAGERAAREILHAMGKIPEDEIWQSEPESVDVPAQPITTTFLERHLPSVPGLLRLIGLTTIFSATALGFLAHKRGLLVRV
Sequence of TGF-beta receptor type-2 (Homo sapiens) (P37173 whole entry, the tested form may be a part): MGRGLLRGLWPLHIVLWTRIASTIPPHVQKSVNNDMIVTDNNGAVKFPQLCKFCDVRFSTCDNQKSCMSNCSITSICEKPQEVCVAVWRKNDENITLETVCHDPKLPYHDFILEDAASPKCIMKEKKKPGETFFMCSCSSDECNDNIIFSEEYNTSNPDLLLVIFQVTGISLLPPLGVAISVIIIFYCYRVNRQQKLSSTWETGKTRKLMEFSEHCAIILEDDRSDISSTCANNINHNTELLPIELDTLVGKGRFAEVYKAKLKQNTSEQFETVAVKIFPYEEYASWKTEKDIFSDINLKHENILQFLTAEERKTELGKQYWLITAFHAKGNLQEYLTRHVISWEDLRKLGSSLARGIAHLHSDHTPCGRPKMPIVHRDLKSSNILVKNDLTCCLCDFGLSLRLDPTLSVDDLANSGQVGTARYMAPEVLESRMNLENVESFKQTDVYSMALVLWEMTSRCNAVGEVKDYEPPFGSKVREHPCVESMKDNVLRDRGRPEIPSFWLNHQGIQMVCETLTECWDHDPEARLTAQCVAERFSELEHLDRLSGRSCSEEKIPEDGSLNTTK

`CC[C@@H](Nc1c(C#N)c(-c2ccc(-c3cccc(C)c3F)cc2)nc2cnccc12)C(=O)O` [BAY-091] gave an inhibition [1] of 7.12%, an inhibition [2] of 10.7% and an inhibition [3] of -4%. It also gave an inhibition [4] of 5.7%, an inhibition [5] of 5.46% and an inhibition [6] of 38%. The inhibition [7] was 9.54%, the inhibition at 60 min, 10 µM [8] was 81% (active) and the inhibition [9] was 4.18%. It also gave an inhibition [10] of 9.2%, an inhibition [11] of 5% and an inhibition [12] of 15.8%. It also gave an inhibition [13] of 12.9%, an inhibition [14] of 19.1% and an inhibition [15] of 8.07%. For the same molecule, the inhibition [16] was 0%, the inhibition [17] was 5.32% and the inhibition [18] was 10%. The inhibition [19] was 19%, the inhibition [20] was 1.52% and the inhibition [21] was -9.1%. For the same molecule, the inhibition [22] was 1.38%, the inhibition [23] was 13% and the inhibition [24] was 21.1%. For the same molecule, the inhibition [25] was -9.06%, the inhibition [26] was 9.33% and the inhibition [27] was 11.8%. It also gave an inhibition [28] of -6.17%, an inhibition [29] of 1.36% and an inhibition [30] of 5.14%. It also gave an inhibition [31] of 1.42%, an inhibition [32] of -4.39% and an inhibition [33] of 23.8%. For the same molecule, the inhibition [34] was 27%, the inhibition [35] was 19.3% and the inhibition [36] was 16.3%. For the same molecule, the inhibition [37] was 3.26%, the inhibition [38] was -6.03% and the inhibition [39] was 26.3%.

Reference: ChEMBL document CHEMBL4800729 (2021)
